Non-standard residues stand in square brackets, D forms with d. Residues, ends and D or L forms follow the SMILES beside them.
What was measured:
cancer cell lines = assay: PCD induction in cancer cell lines (whole panel of Table 1); assay type: cell-based; conditions: cancer cell lines of Table 1, Annexin V labeling
Description: (§1) We used Annexin V-FITC (BD Biosciences) for the assessment of phosphatidylserine (PS) exposure. Data analysis was carried out in a FACSCanto II (BD Biosciences) on the total cell population (10,000 cells). Data were analyzed using FlowJo software (TreeStar).

primary cancer cells = assay: PCD induction in primary cancer cells (whole panel of Table 2); assay type: cell-based; conditions: primary cancer cells (Table 2)
[1] = system: B cells isolated from CLL patients; assay: PCD (phosphatidylserine exposure, Annexin-V-FITC, flow cytometry) in B cells from CLL patients; assay type: cell-based, human
Excerpt: (§2) After authorized consent forms fresh blood samples will be collected from CLL patients diagnosed according to classical morphological and immunophenotypic criteria at Pitié-Salpêtrière Hospital (Service d'Hématologie Biologique). Normal B lymphocytes will be obtained from EFS (Etablisement Français du Sang). The Institutional Ethics Committee at Pitie-Salpetriere Hospital approved the present study. Mononuclear cells were purified from blood samples using a standard Ficoll-Hypaque gradient, and B cells were positively or negatively selected by magnetic beads coupled to anti-CD19 monoclonal antibody (positive selection) or to anti-CD16, CD3, and CD14 monoclonal antibodies (negative depletion) (Miltenyi Biotech). No changes were found in the cell death response of positively or negatively selected cells. Purified B-lymphocytes were cultured in complete medium (RPMI 1640 medium supplemented with 10% fetal calf serum, 2 mM L-glutamine, and 100 U/ml penicillin-streptomycin). Unless specified, reagents were from Sigma-Aldrich.
To induce cell death B-lymphocytes were cultured 1 h with the TSP-1 derived peptide 4N1K (300 μM; sequence KRFYVVMWKK, SEQ ID NO:1), the negative control peptide 4NGG (300 μM; sequence KRFYGGMWKK, SEQ ID NO:2), the newly developed peptide PKHB1 (150 μM; sequence (D)K-R-F-Y-[…]-M-W-(D)K) (formula I) or an anti-CD47 mAb (in soluble conditions or in immobilized precoated plates; 5 μg/ml; clone B6H12). Alternatively, B-cells were pre-treated for 30 min before the induction of cell death with the calcium chelator BAPTA-AM (20 μM), the caspase-inhibitor Z-VAD.fmk (50 μM).
as §1

normal B-lymphocytes = assay: PCD (Annexin-V-FITC) in normal B-lymphocytes; assay type: cell-based, human
Excerpt: as §2, with “Sigma-Aldrich. […]” for “Sigma-Aldrich.”
(§3) We used Annexin V-FITC (BD Biosciences) for the assessment of phosphatidylserine (PS) exposure. […] Data were analyzed using FlowJo software (TreeStar).

[2] = system: CD19^+/CD5^− (residual B-cells); assay: Cell death in residual B-cells of CLL patients (flow cytometry); assay type: cell-based, human; conditions: n=8 patients (FIG. 6C)
Description: FIG. 6A-D. FIG. 6(A) B cells isolated from CLL patients were left untreated (control) or cultured 1 h in the presence of 4N1K or the 4N1K-derivative peptide PKHB-1 at the indicated concentration. The percentage of cells that expose phosphatidylserine (measured with Annexin-V-FITC) was recorded and expressed as a plot. Data are the means of eight independent experiments. FIG. 6(B) In a similar experiment B-lymphocytes from 14 different CLL patients, including individuals with unmutated IGHV, complex karyotype and dysfunctional TP53, were left untreated (control) or cultured 1 h in the presence of 4N1K (300 μM) or the 4N1K-derivative peptide PKHB-1 (150 μM). PCD was measured by Annexin-V-FITC labelling in a flow cytometer. FIG. 6(C) Cell death was determined as described in A in 4N1K or PKHB1-treated CD19^+/CD5^− (residual B-cells) and CD19^+/CD5^+ B-lymphocytes (CLL cells) identified by flow cytometry from each CLL patient. Data are presented as the mean±s.d. (n=8 patients). FIG. 6(D) Cell death was measured by Annexin V-positive staining in 4N1K or PKHB1-treated CLL cells pre-incubated or not with the intracellular calcium chelator BAPTA-AM. Data are presented as the mean±S.D. (n=10 patients).
as §3

MEC-1 cells = assay: Localized CLL xenograft model (MEC-1 cells subcutaneously in NSG mice); assay type: in vivo; conditions: 400 μg intraperitoneally three times per week
Description: 3×10^6 MEC-1 cells were injected subcutaneously into NOD scid gamma (NSG) mice (Charles River). When the tumor volume reached 0.1 cm^3, mice were injected intraperitoneally three times per week with 4NIK or PKHB1 (400 μg in 200 μl PBS). Tumor size was measured every 2-3 days with a calliper and tumor volume, calculated using the formula (length×width^2)/2, was expressed as mm^3. Alternatively, at the end of treatment mice were injected into the sinus retro-orbital with XenoLight RediJect 2-DG-750 Probe (Caliper) to visualize tumor cell glucose uptake, which reflects cell proliferation. Fluorescence was measured by In vivo imaging system FX Pro (Kodak) and pictures were analysed with the Carestream MI software.

[3] = Peptide stability in human serum, HPLC; assay type: in vitro ADME
Description: FIG. 8: 4N1K and PKHB1 peptides stability were evaluated in human serum at 37° C. for 6 h. The relative concentrations of the remaining soluble peptides were analyzed by HPLC, by the integration of the absorbance at 220 nm as a function of retention time.

KRFYGGMWKK [4NGG, negative soluble control peptide, 4N1K mutated in two amino acids, reference compound]
cell death / caspase-independent PCD induction (in words) (cancer cell lines): inefficient | caspase-independent PCD induction (in words) (primary cancer cells): inefficient | PCD induction in CLL primary cells (in words) ([1]; soluble peptide or mAb (FIG. 1)): unable to induce PCD

CSCC[C@H](NC(=O)[C@@H](NC(=O)[C@@H](NC(=O)[C@H](Cc1ccc(O)cc1)NC(=O)[C@H](Cc1ccccc1)NC(=O)[C@H](CCCNC(=N)N)NC(=O)[C@@H](N)CCCCN)C(C)C)C(C)C)C(=O)N[C@@H](Cc1c[nH]c2ccccc12)C(=O)N[C@@H](CCCCN)C(=O)N[C@H](CCCCN)C(=O)O [PKHB1, (D)K-R-F-Y-V-V-M-W-K-(D)] (H-KRFYVVMWK[dK]-OH)
efficiency compared with 4N1K ([1]; B cells isolated from CLL patients, 1 h, indicated concentrations (FIG. 6A)): better efficiency than the 4N1K peptide | effect of pre-treatment with calcium chelator BAPTA-AM on peptide-mediated PCD ([1]; BAPTA-AM 20 μM before PCD induction (FIG. 5, FIG. 6D)): significantly decreased | cell death of CD19^+/CD5^+ tumor cells ([1]; CD19^+/CD5^+ CLL cells, n=8 patients (FIG. 6C)): significantly killed | cytotoxicity in normal B-lymphocytes (normal B-lymphocytes): not in normal B-lymphocytes | cell death of residual CD19^+/CD5^− B-lymphocytes [2]: resistant | tumor growth compared to control mice (MEC-1 cells; NSG mice with MEC-1 tumors (FIG. 7)): reduction | tumor glucose uptake (2-DG) compared to control mice (MEC-1 cells; NSG mice with MEC-1 tumors (FIG. 7C)): reduction | time over which stable in human serum ([3]; 37° C. (FIG. 8)): ≥ 6 h | degradation in human serum ([3]; 37° C., 6 h, HPLC 220 nm (FIG. 8)): not degradated

Source: patent US10759843B2, “Method and pharmaceutical composition for use in the treatment of cancer” (priority 2012, dated 2020)
